Reference: patent US20220257491A1, “Prebiotic Oral Care Compositions and Methods” (Colgate-Palmolive Company, priority 2021, published 2022)
Marks after values point to notes of the source that are not given here.

What was measured:
Assay type in all cases: cell-based
[1] = tested on: P. gingivalis virulence genes; test: Multi-species biofilm virulence gene expression, SYBR RT-qPCR: P. gingivalis; conditions: for Fold Change in virulence gene expression: fimA / Fold Change in virulence gene expression: kgp / Fold Change in virulence gene expression: partC / Fold Change in virulence gene expression: rgpA: relative to control, 2^-ΔΔCt, geometric mean n=3
Experimental: (§1) Biofilms are grown vertically on Calcium Deficient Hydroxyapatite (CAD-HA) disks (Hitemco Medical, Old Bethpage, USA) using the Amsterdam Active Adhesion model. Biofilms are allowed to establish during 24 h (37° C., 170 rpm) under micro-aerophilic conditions (6% O2, 7% CO2, 7% H2, 80% N2). After this 24 h, disks are rinsed 3 times a day for 3 minutes (RT, 250 rpm), for 3 consecutive days, by transferring the lid containing the disks to a new 24-well plate containing 2 mL/well of the appropriate substrate solution. As a negative control, PBS (pH 5.7) without substrate supplementation is used. After each rinsing step, disks are shortly dip-rinsed in a new 24-well plate containing fresh modified BHI medium (2 mL/well) to remove remaining substrate traces. Subsequently, the lid is transferred to another 24-well plate containing fresh modified BHI medium (2 mL/well), followed by incubation (micro-aerophilic, 37° C., 170 rpm) until the next rinsing step.
(§2) The expression of 33 virulence genes from 4 periodontal pathogens is analysed to evaluate the relative virulence of the substrate-treated biofilms. For all three substrates, virulence gene expression is determined relatively to the control, and these values are also compared between substrates when this is relevant (Tables 5a-5d).

S. salivarius = test: Multi-species biofilm composition: absolute abundance of S. salivarius; conditions: mean±SD n=3
Experimental: as §1
(§3) NADM, N-acetyl-D-glucosamine (“NADG”) and D-(+)-mannose are selected to determine their effects on multi-species biofilm composition. Repeated rinsing of the biofilms with the substrates at a concentration of 1M results in a significant decrease in absolute numbers in at least four of the pathogenic bacterial species tested in the assay, compared to the control, the results of which are described in Table 1 below. Absolute abundances of bacterial species are shown as mean±SD (n=3) logarithmic values of the genome equivalents per millilitre (log(Geq/mL)).

P. gingivalis = test: Multi-species biofilm composition: absolute abundance of P. gingivalis; conditions: mean±SD n=3
Experimental: as §1
(§4) NADM, N-acetyl-D-glucosamine (“NADG”) and D-(+)-mannose are selected to determine their effects on multi-species biofilm composition. […] decrease in absolute numbers in at least four of the pathogenic bacterial species tested in the assay, compared to the control, the results of which are described in Table 1 below. Absolute abundances of bacterial species are shown as mean±SD (n=3) logarithmic values of the genome equivalents per millilitre (log(Geq/mL)).

S. gordonii = test: Multi-species biofilm composition: absolute abundance of S. gordonii; conditions: mean±SD n=3
Experimental: as §1, §3

[2] = tested on: F. nucleatum virulence genes; test: Multi-species biofilm virulence gene expression, SYBR RT-qPCR: F. nucleatum; conditions: for Fold Change in virulence gene expression: ABC transp. perm. / Fold Change in virulence gene expression: EF-G / Fold Change in virulence gene expression: but.-coA transf. / Fold Change in virulence gene expression: hemin receptor / Fold Change in virulence gene expression: hemolysin / Fold Change in virulence gene expression: ompA / Fold Change in virulence gene expression: transposase: relative to control (=1), 2^-ΔΔCt, geometric mean n=3
Experimental: as §1, §2

F. nucleatum = test: Multi-species biofilm composition: absolute abundance of F. nucleatum; conditions: mean±SD n=3
Experimental: as §1, §4

S. sobrinus = test: Multi-species biofilm composition: absolute abundance of S. sobrinus; conditions: mean±SD n=3
Experimental: as §1, §4

S. mitis = test: Multi-species biofilm composition: absolute abundance of S. mitis; conditions: mean±SD n=3
Experimental: as §1, §4

[3] = tested on: human oral keratinocytes (HOK-18A); test: IL-8 levels in supernatants of keratinocyte cultures exposed to substrate-treated biofilms; conditions: mean±SD n=3
Experimental: Cultures of immortalized human oral keratinocytes (HOK-18A) are grown. The relative inflammatory potential of the substrate-treated multi-species biofilms is evaluated by analyzing the expression of five inflammatory mediator genes in human oral keratinocytes (HOKs) exposed to the substrate-treated biofilms. […] The IL-8 levels in the cellular supernatant are determined as well. RNA is converted to cDNA and relative expression of inflammatory mediator genes is determined as described above with respect to the cellular housekeeping gene (3-actin.
Table 7: IL-8 levels detected in the supernatants of human oral keratinocytes (HOK-18A) cultures exposed to substrate-treated multi-species biofilms are shown as mean±SD (n=3) values (pg/mL). All substrates are dissolved in PBS at a concentration of 1 M (upper part) or 1% (w/v) (lower part). Values between 0 and 1 represent relative downregulation, values >1 represent relative upregulation. […] For such values, statistically significant differences between two experimental conditions are marked with ‘#1’ (vs. NADM), ‘#2’ (vs. NADG), ‘#3’ (vs. D-(+)-mannose) (P<0.05).

P. intermedia = test: Multi-species biofilm composition: absolute abundance of P. intermedia; conditions: mean±SD n=3
Experimental: as §1, §3

S. oralis = test: Multi-species biofilm composition: absolute abundance of S. oralis; conditions: for Absolute abundance S. oralis: mean±SD n=3
Experimental: as §1, §4

V. parvula = test: Multi-species biofilm composition: absolute abundance of V. parvula; conditions: mean±SD n=3
Experimental: as §1, §3

[4] = tested on: P. intermedia virulence genes; test: Multi-species biofilm virulence gene expression, SYBR RT-qPCR: P. intermedia; conditions: for Fold Change in virulence gene expression: DnaJ / Fold Change in virulence gene expression: DnaK / Fold Change in virulence gene expression: ECF / Fold Change in virulence gene expression: GroES / Fold Change in virulence gene expression: HtpG / Fold Change in virulence gene expression: KpsD / Fold Change in virulence gene expression: adpc / Fold Change in virulence gene expression: clpB / Fold Change in virulence gene expression: inpA / Fold Change in virulence gene expression: phg: relative to control (=1), 2^-ΔΔCt, geometric mean n=3
Experimental: as §1, §2

## CC(=O)N[C@H]1C(O)O[C@H](CO)[C@@H](O)[C@@H]1O (stereo partly drawn) [NADG, N-acetyl-D-glucosamine, reference compound]
[1]; substrate 1%(w/v)
  P. gingivalis partC expression decrease: 2.8 fold
[1]; substrate 1%
  Fold Change in virulence gene expression: fimA: 1.15 fold
  Fold Change in virulence gene expression: kgp: 1.81 fold
  Fold Change in virulence gene expression: partC: 0.36 fold
  Fold Change in virulence gene expression: rgpA: 1.31 fold
[1]; substrate 1M
  Fold Change in virulence gene expression: fimA: 0.79 fold
  Fold Change in virulence gene expression: kgp: 0.07 fold
  Fold Change in virulence gene expression: partC: 0.19 fold
  Fold Change in virulence gene expression: rgpA: 0.39 fold
S. salivarius; substrate 1%(w/v) in PBS
  Absolute abundance S. sal. (S. salivarius): 2.65 ± 0.00 log(Geq/mL)
S. salivarius; substrate 1 M in PBS
  Absolute abundance S. sal. (S. salivarius): 4.38 ± 1.23 log(Geq/mL)
P. gingivalis; substrate 1%(w/v) in PBS
  Absolute abundance Pg (P. gingivalis): 7.14 ± 0.28 log(Geq/mL)
P. gingivalis; substrate 1 M in PBS
  Absolute abundance Pg (P. gingivalis): 4.00 ± 0.39*^, ^#3 log(Geq/mL)
S. gordonii; substrate 1%(w/v) in PBS
  Absolute abundance S. gord. (S. gordonii): 8.33 ± 0.06 log(Geq/mL)
S. gordonii; substrate 1 M in PBS
  Absolute abundance S. gord. (S. gordonii): 9.38 ± 0.40 log(Geq/mL)
[2]; substrate 1%
  Fold Change in virulence gene expression: ABC transp. perm.: 0.33 fold
  Fold Change in virulence gene expression: EF-G: 0.10 fold
  Fold Change in virulence gene expression: but.-coA transf.: 0.21 fold
  Fold Change in virulence gene expression: hemin receptor: 0.19 fold
  Fold Change in virulence gene expression: hemolysin: 0.79 fold
  Fold Change in virulence gene expression: ompA: 0.74 fold
  Fold Change in virulence gene expression: transposase: 0.98 fold
[2]; substrate 1 M
  F. nucleatum hemolysin gene, upregulation: 1.9 fold
[2]; substrate 1M
  Fold Change in virulence gene expression: ABC transp. perm.: 3.33 fold
  Fold Change in virulence gene expression: EF-G: 1.45 fold
  Fold Change in virulence gene expression: but.-coA transf.: 1.21 fold
  Fold Change in virulence gene expression: hemin receptor: 3.26 fold
  Fold Change in virulence gene expression: hemolysin: 1.90 fold
  Fold Change in virulence gene expression: ompA: 1.33 fold
  Fold Change in virulence gene expression: transposase: 1.27 fold
F. nucleatum; substrate 1%(w/v) in PBS
  Absolute abundance Fn (F. nucleatum): 9.41 ± 0.19 log(Geq/mL)
F. nucleatum; substrate 1 M in PBS
  Absolute abundance Fn (F. nucleatum): 7.09 ± 0.30 log(Geq/mL)
S. sobrinus; substrate 1%(w/v) in PBS
  Absolute abundance S. sobrinus: 4.87 ± 0.22 log(Geq/mL)
S. sobrinus; substrate 1 M in PBS
  Absolute abundance S. sobrinus: 4.16 ± 0.44 log(Geq/mL)
S. mitis; substrate 1%(w/v) in PBS
  Absolute abundance S. mitis: < LOD
S. mitis; substrate 1 M in PBS
  Absolute abundance S. mitis: <LOD
[3]; biofilm rinsed with substrate 1%(w/v)
  IL-8 levels in supernatants of HOK-18A cultures: 54.75 ± 11.66 pg/mL
[3]; biofilm rinsed with substrate 1M
  IL-8 levels in supernatants of HOK-18A cultures: 0.22 ± 0.32 pg/mL
P. intermedia; substrate 1%(w/v) in PBS
  Absolute abundance Pi (P. intermedia): 8.17 ± 0.22 log(Geq/mL)
P. intermedia; substrate 1 M in PBS
  Absolute abundance Pi (P. intermedia): 6.93 ± 0.62 log(Geq/mL)
S. oralis; substrate 1%(w/v) in PBS
  Absolute abundance S. oralis: 7.11 ± 0.14 log(Geq/mL)
S. oralis; substrate 1 M
  Change in S. oralis numbers compared to the control: +1.0 log(Geq/mL)
S. oralis; substrate 1 M in PBS
  Absolute abundance S. oralis: 7.97 ± 0.31*^, #1 log(Geq/mL)
V. parvula; substrate 1%(w/v) in PBS
  Absolute abundance Vp (V. parvula): 9.77 ± 0.19 log(Geq/mL)
V. parvula; substrate 1 M in PBS
  Absolute abundance Vp (V. parvula): 10.57 ± 0.24 log(Geq/mL)
[4]; substrate 1%(w/v), D-(+)-mannose for 3 genes
  Relative P. intermedia virulence gene expression, downregulation: unaffected
[4]; substrate 1%
  Fold Change in virulence gene expression: DnaJ: 0.7 fold
  Fold Change in virulence gene expression: DnaK: 0.77 fold
  Fold Change in virulence gene expression: ECF: 0.48 fold
  Fold Change in virulence gene expression: GroES: 0.75 fold
  Fold Change in virulence gene expression: HtpG: 0.46 fold
  Fold Change in virulence gene expression: KpsD: 0.78 fold
  Fold Change in virulence gene expression: adpc: 0.67 fold
  Fold Change in virulence gene expression: clpB: 1.06 fold
  Fold Change in virulence gene expression: inpA: 0.53 fold
  Fold Change in virulence gene expression: phg: 0.69 fold
[4]; substrate 1 M, range over genes
  P. intermedia virulence gene expression, increases: 2- to 20.3 fold
[4]; substrate 1M
  Fold Change in virulence gene expression: DnaJ: 0.64 fold
  Fold Change in virulence gene expression: DnaK: 2.34 fold
  Fold Change in virulence gene expression: ECF: 20.32 fold
  Fold Change in virulence gene expression: GroES: 1.86 fold
  Fold Change in virulence gene expression: HtpG: 3.40 fold
  Fold Change in virulence gene expression: KpsD: 1.72 fold
  Fold Change in virulence gene expression: adpc: 2.65 fold
  Fold Change in virulence gene expression: clpB: 2.03 fold
  Fold Change in virulence gene expression: inpA: 4.52 fold
  Fold Change in virulence gene expression: phg: 0.57 fold
